Data on 20 compounds can be found in patent US8030354B2, “Substituted biphenyl GPR40 modulators” (Amgen Inc., priority 2007, dated 2011).

What is called EC50 is the concentration needed to bring the measured effect to its halfway point. A high value points to a less potent agent.

Chain of GPR40 (O14842 whole entry): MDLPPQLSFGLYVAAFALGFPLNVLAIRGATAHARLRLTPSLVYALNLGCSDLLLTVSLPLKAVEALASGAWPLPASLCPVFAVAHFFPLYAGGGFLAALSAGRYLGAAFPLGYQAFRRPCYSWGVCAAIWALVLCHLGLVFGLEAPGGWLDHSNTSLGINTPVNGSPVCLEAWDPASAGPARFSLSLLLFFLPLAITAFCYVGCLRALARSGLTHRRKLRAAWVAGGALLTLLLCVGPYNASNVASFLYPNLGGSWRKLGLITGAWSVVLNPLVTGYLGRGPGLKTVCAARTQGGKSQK

The assay addresses GPR40 (Homo sapiens, UniProt O14842). The assay is described as follows: Cell-based aequorin assay (CHO cells stably expressing GPR40 and aequorin). Set-up: expressed in transfected cells; host or cells: CHO cells stably transfected with GPR40 and aequorin. As to conditions: activation of human GPR40, CHO cells, 0.01% HSA. A digest of the protocol: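 CHO cells stably co-expressing GPR40 and aequorin, loaded with coelenterazine (1 ug/mL, 2 h, room temperature) in H/HBSS with 20 mM Hepes and 0.01% fatty acid-free HSA. Serially diluted compounds added; luminescence recorded over 20 s. EC50 from dose-response of maximum relative light units.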
As to `CCCCOc1cc(COc2cccc(C(CCC(F)(F)F)CC(=O)O)c2)ccc1-c1cc(OC)ccc1F` (single isomer, unassigned) [Example 68.2, (3R)-3-(3-(((2-(Butyloxy)-2′-fluoro-5′-(methyloxy)-1,1′-biphenyl-4-yl)methyl)oxy)phenyl)-6,6,6-trifluorohexanoic acid or (3S)-3-(3-(((2-(butyloxy)-2′-fluoro-5′-(methyloxy)-1,1′-biphenyl-4-yl)methyl)oxy)phenyl)-6,6,6-trifluorohexanoic acid], the EC50 lay within 1000 to 10000 nM. For `CCCCOc1cc(COc2cccc(C(CC(=O)O)CC3CC3)c2)ccc1-c1cc(OC)ccc1F` (single isomer, unassigned) [Example 69.5, (3R)-3-(3-(((2-(Butyloxy)-2′-fluoro-5′-(methyloxy)-1,1′-biphenyl-4-yl)methyl)oxy)phenyl)-4-cyclopropylbutanoic acid or (3S)-3-(3-(((2-(butyloxy)-2′-fluoro-5′-(methyloxy)-1,1′-biphenyl-4-yl)methyl)oxy)phenyl)-4-cyclopropylbutanoic acid] the value was 100 to 1000 nM; for `COc1ccc(F)c(-c2ccc(COc3cccc(C(CC(=O)O)CC4CC4)c3)cc2C2CCCC2(C)C)c1` (single isomer, unassigned) [Example 69.7], 100 to 1000 nM; for `COc1cccc(-c2ccc(COc3cccc(C(CC(=O)O)CC4CC4)c3)cc2C2CCCC2(C)C)c1` (single isomer, unassigned) [Example 69.9], 100 to 1000 nM. The figure for `COc1ccc(F)c(-c2ccc(COc3cccc(C(CC(=O)O)CC4CC4)c3)cc2C(=O)C(C)(C)C)c1` (single isomer, unassigned) [Example 69.20, (3R)-4-Cyclopropyl-3-(3-(((2-(2,2-dimethylpropanoyl)-2′-fluoro-5′-(methyloxy)-1,1′-biphenyl-4-yl)methyl)oxy)phenyl)butanoic acid or (3S)-4-cyclopropyl-3-(3-(((2-(2,2-dimethylpropanoyl)-2′-fluoro-5′-(methyloxy)-1,1′-biphenyl-4-yl)methyl)oxy)phenyl)butanoic acid] is 1000 to 10000 nM; for `COc1ccc(F)c(-c2ccc(COc3cccc([C@@H](CC(=O)O)CC4CC4)c3)cc2S(=O)(=O)C(C)C)c1` (single isomer, unassigned) [Example 69.25, (R)-4-Cyclopropyl-3-{3-[2′-fluoro-5′-methoxy-2-(propane-2-sulfonyl)-biphenyl-4-ylmethoxy]-phenyl}-butyric acid or (S)-4-cyclopropyl-3-{3-[2′-fluoro-5′-methoxy-2-(propane-2-sulfonyl)-biphenyl-4-ylmethoxy]-phenyl}-butyric acid] it is 1000 to 10000 nM; for `COc1ccc(F)c(-c2ccc(COc3cccc([C@@H](CC(=O)O)CC4CC4)c3)cc2[S+]([O-])C(C)C)c1` (single isomer, unassigned) [Example 69.26, (R)-4-Cyclopropyl-3-{3-[2′-fluoro-5′-methoxy-2-(propane-2-sulfinyl)-biphenyl-4-ylmethoxy]-phenyl}-butyric acid or (S)-4-cyclopropyl-3-{3-[2′-fluoro-5′-methoxy-2-(propane-2-sulfinyl)-biphenyl-4-ylmethoxy]-phenyl}-butyric acid] it is 1000 to 10000 nM. The figure for `COc1ccc(F)c(-c2ccc(COc3cccc(C(CC(=O)O)CC4CC4)c3)cc2C2OCCCC2(C)C)c1` (single isomer, unassigned) [Example 69.27, (R)-4-Cyclopropyl-3-{3-[2-(3,3-dimethyl-tetrahydro-pyran-2-yl)-2′-fluoro-5′-methoxy-biphenyl-4-ylmethoxy]-phenyl}-butyric acid or (S)-4-cyclopropyl-3-{3-[2-(3,3-dimethyl-tetrahydro-pyran-2-yl)-2′-fluoro-5′-methoxy-biphenyl-4-ylmethoxy]-phenyl}-butyric acid] is 100 to 1000 nM; for `CCOCc1cc(COc2cccc(C(CC(=O)O)CC3CC3)c2)ccc1-c1cc(OC)ccc1F` (single isomer, unassigned) [Example 69.37, (3R)-4-Cyclopropyl-3-(3-(((2-((ethyloxy)methyl)-2′-fluoro-5′-(methyloxy)-1,1′-biphenyl-4-yl)methyl)oxy)phenyl)butanoic acid or (3S)-4-cyclopropyl-3-(3-(((2-((ethyloxy)methyl)-2′-fluoro-5′-(methyloxy)-1,1′-biphenyl-4-yl)methyl)oxy)phenyl)butanoic acid] it is 1000 to 10000 nM. For `C=CC(C)(C)[C@H](OC)c1cc(COc2cccc([C@@H](CC(=O)O)CC3CC3)c2)ccc1-c1cc(OC)ccc1F` (single isomer, unassigned) [Example 69.39], the EC50 fell in the range of 1000 to 10000 nM. The figure for `C=CC(C)(C)C(O)c1cc(COc2cccc(C(CC(=O)O)CC3CC3)c2)ccc1-c1cc(OC)ccc1F` (single isomer, unassigned) [Example 69.40] is 1000 to 10000 nM; for `CCC(C)(C)C(OC)c1cc(COc2cccc(C(CC(=O)O)CC3CC3)c2)ccc1-c1cc(OC)ccc1F` (single isomer, unassigned) [Example 69.41, (3R)-4-Cyclopropyl-3-(3-(((2-((1S)-2,2-dimethyl-1-(methyloxy)butyl)-2′-fluoro-5′-(methyloxy)-1,1′-biphenyl-4-yl)methyl)oxy)phenyl)butanoic acid or (3R)-4-cyclopropyl-3-(3-(((2-((1S)-2,2-dimethyl-1-(methyloxy)butyl)-2′-fluoro-5′-(methyloxy)-1,1′-biphenyl-4-yl)methyl)oxy)phenyl)butanoic acid] it is 100 to 1000 nM; for `COc1ccc(F)c(-c2ccc(COc3cccc([C@@H](CC(=O)O)CC4CC4)c3)cc2[C@@H]2OCCC2(C)C)c1` (single isomer, unassigned) [Example 69.43] it is 1000 to 10000 nM. The figure for `COc1ccc(F)c(-c2ccc(COc3cccc(C(CC(=O)O)CC4CC4)c3)cc2COCC=C(C)C)c1` (single isomer, unassigned) [Example 69.45, (3R)-4-Cyclopropyl-3-(3-(((2′-fluoro-2-(((3-methyl-2-butenyl)oxy)methyl)-5′-(methyloxy)-1,1′-biphenyl-4-yl)methyl)oxy)phenyl)butanoic acid or (3S)-4-cyclopropyl-3-(3-(((2′-fluoro-2-(((3-methyl-2-butenyl)oxy)methyl)-5′-(methyloxy)-1,1′-biphenyl-4-yl)methyl)oxy)phenyl)butanoic acid] is 1000 to 10000 nM; for `COc1ccc(F)c(-c2ccc(COc3cccc(C(CC(=O)O)CC4CC4)c3)cc2CN2CCCC2)c1` (single isomer, unassigned) [Example 69.46, (3R)-4-Cyclopropyl-3-(3-(((2′-fluoro-5′-(methyloxy)-2-(1-pyrrolidinylmethyl)-1,1′-biphenyl-4-yl)methyl)oxy)phenyl)butanoic acid or (3S)-4-cyclopropyl-3-(3-(((2′-fluoro-5′-(methyloxy)-2-(1-pyrrolidinylmethyl)-1,1′-biphenyl-4-yl)methyl)oxy)phenyl)butanoic acid] it is 1000 to 10000 nM. For `COc1ccc(F)c(-c2ccc(COc3cccc(C(CC(=O)O)CC4CC4)c3)cc2CN2[C@H](C)CC[C@H]2C)c1` (single isomer, unassigned) [Example 69.47, (3R)-4-Cyclopropyl-3-(3-(((2-(((2R,5R)-2,5-dimethyl-1-pyrrolidinyl)methyl)-2′-fluoro-5′-(methyloxy)-1,1′-biphenyl-4-yl)methyl)oxy)phenyl)butanoic acid or (3S)-4-cyclopropyl-3-(3-(((2-(((2R,5R)-2,5-dimethyl-1-pyrrolidinyl)methyl)-2′-fluoro-5′-(methyloxy)-1,1′-biphenyl-4-yl)methyl)oxy)phenyl)butanoic acid] the value was 100 to 1000 nM. `COc1ccc(F)c(-c2ccc(COc3cccc(C(CC(=O)O)CC4CC4)c3)cc2CN2CCCCCC2)c1` (single isomer, unassigned) [Example 69.48, (3R)-3-(3-(((2-(1-Azepanylmethyl)-2′-fluoro-5′-(methyloxy)-1,1′-biphenyl-4-yl)methyl)oxy)phenyl)-4-cyclopropylbutanoic acid or (3S)-3-(3-(((2-(1-azepanylmethyl)-2′-fluoro-5′-(methyloxy)-1,1′-biphenyl-4-yl)methyl)oxy)phenyl)-4-cyclopropylbutanoic acid]: the half-maximal effective concentration (EC50) lay within 1000 to 10000 nM. For the compound `CCCCC(CC(=O)O)c1cccc(OCc2ccc(-c3cc(OC)ccc3F)c(C(C)(C)C)c2)c1` (single isomer, unassigned) [Example 71.1, (3R)-3-(3-(((2-(1,1-Dimethylethyl)-2′-fluoro-5′-(methyloxy)-1,1′-biphenyl-4-yl)methyl)oxy)phenyl)heptanoic acid or (3S-3-(3-(((2-(1,1-dimethylethyl)-2′-fluoro-5′-(methyloxy)-1,1′-biphenyl-4-yl)methyl)oxy)phenyl)heptanoic acid], the EC50 is 100 to 1000 nM. The compound `COC[C@H](CC(=O)O)c1cccc(OCc2ccc(-c3cc(OC)ccc3F)c(C3=CCCC3(C)C)c2)c1` (single isomer, unassigned) [Example 74, (3R)-3-(3-(((2-(5,5-Dimethyl-1-cyclopenten-1-yl)-2′-fluoro-5′-(methyloxy)-1,1′-biphenyl-4-yl)methyl)oxy)phenyl)-4-(methyloxy)butanoic acid or (3S)-3-(3-(((2-(5,5-dimethyl-1-cyclopenten-1-yl)-2′-fluoro-5′-(methyloxy)-1,1′-biphenyl-4-yl)methyl)oxy)phenyl)-4-(methyloxy)butanoic acid] came in with an EC50 of 1000 to 10000 nM. For `CCC=C[C@H](CC(=O)O)c1cccc(OCc2ccc(-c3cc(OC)ccc3F)c(C(C)(C)C)c2)c1` (single isomer, unassigned) [Example 75, (3S)-3-(3-(((2-(1,1-Dimethylethyl)-2′-fluoro-5′-(methyloxy)-1,1′-biphenyl-4-yl)methyl)oxy)phenyl)-4-heptenoic acid or (3R)-3-(3-(((2-(1,1-dimethylethyl)-2′-fluoro-5′-(methyloxy)-1,1′-biphenyl-4-yl)methyl)oxy)phenyl)-4-heptenoic acid] the value was 100 to 1000 nM.
